Several values for one entry are separate records, joined by “and”; a condition that tells them apart may be missing. Equal entries are not always repeated. Entries after “also recorded” stand apart in the source; their conditions may differ. Structures can show the parent of a compound that is named as a salt. Where two headings read alike, the source gives them in different places.
Assays:
[1] = test system: spinal motor neurons in primary culture; test: Neuroprotection against glutamate-induced toxicity in primary spinal cord cultures; type: cell-based, rat; details: 10-100 ng/ml, 2-4 h pretreatment; 20 μM glutamate + 100 μM PDC
Procedure: Time-pregnant Sprague Dawley wild-type rats were anesthetized, decapitated and E15.5 embryos collected, decapitated and spinal cords isolated in Hanks balanced salt solution (HBSS, Invitrogen). Dissections of spinal cords were done carefully to avoid the inclusion of somites or other external tissues. Cells were dissociated by gentle trituration and incubation with papain (Worthington Biochemical Corporation). Cells were cultured for 6 days in Neurobasal media (Invitrogen) containing 10% fetal bovine serum (FBS, Fisher scientific), 1×B27 supplement (Invitrogen), 500 μM glutamine (Invitrogen), […] mercaptoethanol (Invitrogen), Penicillin-Streptomycin (Invitrogen) or in DMEM/F12 (Invitrogen) containing 5% FBS, 1×N2 supplement A (Stem Cell Technologies), glucose (0.36%, Sigma), bovine serum albumin (0.25%, Invitrogen), Penicillin-Streptomycin (Invitrogen). Either culture media could maintain spinal cord cultures containing motor neurons. […]
For immunofluorescent staining, coverslips/sections were rinsed with phosphate buffered saline and incubated with blocking buffer (see above) for 1 h. […] The effect of glutamate, IGF-II and/or guanine deaminase on motor neuron survival was carefully evaluated, as was the co-localization of motor neuron markers.

IGF-II P4 promoter [2] = details: cited from earlier work
IGF-II mRNA = test: IGF-II expression assay, qPCR detection, in primary spinal cord cultures; type: cell-based, mice
Procedure: Quantitative PCR utilizing SYBR green I (Molecular Probes, Eugene, Oreg.) or specific Taqman probes was used to confirm differential gene expression. RNA extracted from 100-200 LCMed motor neurons were reverse transcribed using Superscript III (Invitrogen). 2 μl of diluted cDNA was amplified (DNA Engine Opticon real-time PCR machine, Bio-Rad), in […] reactions containing 900 nM primer and 250 nM probe in Taqman Universal Master Mix (Applied Biosystems). Reactions were run in duplicate and each gene analyzed in at least three different animals. Reaction parameters were as follows: 50° C. for 2 min, 95° C. for 10 min, and 40 cycles of 95° C. for 15 s and 60° C. for 1 min. Controls lacking template and/or Superscript were included. The absolute copy number for each gene was quantified using a standard curve from human GAPDH plasmid and amplified products were normalized against rat GAPDH expression. Primers and probes (Integrated DNA technologies) were as follows: rat GAPDH: Forward primer: […]
Two libraries of FDA-approved drugs (NINDS and Harvard LDDN) were screened for their ability to up-regulate IGF-II expression. Candidate compounds were screened in an IGF-II expression assay using a qPCR detection methodology in primary spinal cord cultures or using a luciferase reporter assay. In the initial screening, therapeutic candidates were identified as those that increased IGF-II expression by at least 2-fold. […]

IGF-II protein = IGF-II protein expression in primary spinal cord cultures, quantitated by ELISA; type: cell-based, mice
Description: Further results of the library screening identified the following therapeutic agents as having a significant inducing effect on IGF-II expression in primary spinal cord cultures and are useful for treating motor neuron disease. Protein expression was quantitated by ELISA.

[3] = test system: motor neurons in primary spinal cord cultures; test: Low-level progressive glutamate excitotoxicity in primary spinal cord cultures; type: cell-based, mice; details: drug pretreatment, glutamate/PDC treatments 48 hours apart, FIG. 8
Procedure: Primary spinal cord cultures from E12 pregnant mice were pre-treated for 72 hours with 1 μM, 2.5 μM, 5 μM, or 10 μM of a selected drug according to prior optimized dosing regimen. Drugs tested were identified during screening of qPCR. Subsequently, experimental cultures were grown in the presence of 0, 1.0 μM, 2.5 μM, or 10 μM drug for 24 hours prior to exposure to two glutamate (20 μM)/PDC (1 μM) or glutamate (50 μM)/PDC (10 μM) treatments 48 hours apart. Control samples (no glutamate/PDC treatment) were cultured for 24 hours in the presence of 10 μM drug administered 3 times to determine toxicity of treatment. All cultures were then fixed and stained with ChAT, Hoechst stain of the nuclei, and Islet1/2 antibody labels for the motorneuron columns. Results were analyzed using an In Cell Analyzer (GE Healthcare). Results were presented as percent of vehicle (DMSO) treated control cells.

IGF-II P4 promoter [4] = test: Luciferase reporter assay, P4 IGF-II promoter cell line (SK-N-FI cells); type: cell-based; details: FIG. 9, HCl
Procedure: pGL4.17[luc/Neo] reporter constructs were transfected to contain the P4 IGF-II promoter using the Blue Heron Bio GeneMaker. After transfection of reporter constructs into SK-N-FI cells+IGF-II using G418 selection pressure for generation of stable cell-line, clonal expansion, IGF-II up-regulating drugs such as glucocorticoids were added, and luminescence was measured. The cell lines were optimized for luciferase intensity, background, and responsiveness. The transfected cells were then used to screen the drug libraries described above
The P4 promoter cell line was cultured as described above. Eight drugs that were positive in the small library screen were tested as described above, and luciferase luminescence was measured. Of the eight tested drugs, four acted on the P4 IGF-II promoter. The best-performing non-glucocorticoid candidate that was tested was Vardenafil HCl. […] Vardenafil HCl is a phosphodiesterase type 5 (PDE5) inhibitor with a structure as shown in FIG. 11 and is known to increase cellular cGMP. Vardenafil has been previously FDA approved for treatment of erectile dysfunction and is also clinically used for treating pulmonary hypertension, and is in preclinical studies as a treatment of cystic fibrosis.

IGF-II: recombinant IGF-II (R&D Systems), added exogenously to primary spinal cord cultures
protection of motor neurons from glutamate-induced toxicity [1]: blocked glutamate-induced motor neuron loss completely; also recorded: protected motor neurons against the toxicity; also recorded: protected motor neurons from glutamate-induced toxicity

C[C@]12CCC(=O)C=C1CC[C@@H]1[C@@H]2[C@@H](O)C[C@@]2(C)[C@H]1CC[C@]2(O)C(=O)CO [hydrocortisone]
P4 IGF-II promoter activation (known) (IGF-II P4 promoter [2]): known P4 activator

CCCc1nc(C)c2c(=O)[nH]c(-c3cc(S(=O)(=O)N4CCN(CC)CC4)ccc3OCC)nn12 [Vardenafil HCl]
Fold Increase in IGF-II mRNA Expression (IGF-II mRNA; HCl): 6.5 fold and 6.5 ± 0.2 fold | Fold Increase in IGF-II Protein Expression (IGF-II protein): 1.6 fold | IGF-II Protein Expression (pg/ml in media) (IGF-II protein; in media): (245 ± 27) pg/ml | protection of motor neurons against glutamate/PDC excitotoxic insult ([3]; HCl): provided a level of protection; also recorded: rescues primary motor neurons from low-level progressive glutamate toxicity | luciferase luminescence, activation of P4 IGF-II promoter (IGF-II P4 promoter [4]): roughly equal to those of Hydrocortisone at three concentrations; also recorded: activation, as shown in FIG. 9, at a level similar to the known P4 activator hydrocortisone

N=C(N)N/N=C/c1c(Cl)cccc1Cl [Guanabenz acetate]
Fold Increase in IGF-II mRNA Expression (IGF-II mRNA): 3.8 fold | induction of IGF-II expression (in words) (IGF-II mRNA; antihypertensive agents, FIGS. 5 and 6): most active | protection of motor neurons against glutamate/PDC excitotoxic insult [3]: provided a level of protection

— patent US20130274235A1, “TREATMENT OF MOTOR NEURON DISEASE” (THE GENERAL HOSPITAL CORPORATION, priority 2010, published 2013)
